Experimental data reported in patent US10426773B2, “Systems pharmacology for treating ocular disorders” (Case Western Reserve Univeristy, priority 2011, dated 2019).
Entries after “also recorded” stand apart in the source; their conditions may differ. Structures can show the parent of a compound that is named as a salt.

How the values were obtained:
[1] = system: ROS generation in photoreceptors of Abca4−/−Rdh8−/− mice; experiment: In vivo detection of ROS (DHE probe) in retinas of light-exposed Abca4−/−Rdh8−/− mice; set-up: species or system mouse; conditions: Example 1; pretreatment before light 10,000 lux 30 min; retinas 3 h after illumination
Experimental: The ROS probe, DHE, at a dose of 20 mg/kg body weight was administered to Abca4^−/−Rdh8^−/− mice via intraperitoneal injection 30 min prior to light exposure. Eye cups obtained after removing the cornea, lens and vitreous body from enucleated eye globes 3 h post light illumination were fixed in 4% paraformaldehyde. Cryosections were prepared from fixed eye cups and cut at 12 am thickness for microscopic assessment of ROS signal fluorescence in the retina.
The ROS probe, DHE, at a dose of 20 mg/kg body weight in 25 μl of DMSO, was administered to Abca4^−/−Rdh8^−/− mice via intraperitoneal injection 1 h prior to light exposure. Eye cups obtained after removing the cornea, lens, and vitreous body from enucleated eye globes 3 h post light illumination were fixed in 4% paraformaldehyde. Cryosections were prepared from fixed eye cups and cut at 12-am thickness for microscopic assessment of ROS fluorescence in the retina with ImageJ software (National Institutes of Health).

Abca4−/−Rdh8−/− mice [2] = experiment: Bright light-induced retinal degeneration in Abca4−/−Rdh8−/− mice, retinal histology and immunohistochemistry; format: in vivo, mouse; conditions: pretreatment before light 10,000 lux 30 min; 7-10 days after light exposure
Experimental: Retinal histology and immunohistochemistry (IHC) was performed as previously described. Briefly, eye cups free of cornea, lens and vitreous body were fixed in 2% glutaraldehyde/4% paraformaldehyde and processed for Epon embedding. Sections 1 am thick were cut and stained with toluidine blue for histological examination under a light microscope. IHC analysis was performed on 12 am thick cryosections prepared from 4% paraformaldehyde-fixed eye cups. Collected cryosections were subjected to examination for rhodopsin, PNA and DAPI expression.
Retinal immunohistochemistry (IHC) was carried out as previously described. Briefly, eyes were enucleated and eye cups were made to eliminate cornea, lens and vitreous body and fixed in 4% paraformaldehyde and processed for cryosectioning. 12 am thick cryosections were collected cryosections and subjected to examination for rhodopsin, peanut agglutinin lectin (PNA) and DAPI expression.
Retinal immunohistochemistry (IHC) was performed as previously described. Briefly, eyes were enucleated and, after removal of the cornea, lens and vitreous body, eye cups were fixed in 4% paraformaldehyde and processed for cryosectioning. Twelve μm thick cryosections were cut, collected and examined for rhodopsin expression, peanut agglutinin lectin (PNA) for cone sheath and nuclear DAPI staining. […]

Abca4−/−Rdh8−/− mice [3] = experiment: Bright light-induced retinal degeneration in Abca4−/−Rdh8−/− mice, ERG retinal function; conditions: pretreatment before light 10,000 lux 30 min, ERG 7 days to 2 weeks after
Abca4−/−Rdh8−/− mice [4] = experiment: Bright light-induced retinal degeneration in Abca4−/−Rdh8−/− mice, OCT imaging of retinal structure; format: in vivo, mouse; conditions: for retinal / photoreceptor morphology by OCT imaging: pretreatment before light 10,000 lux 30 min, OCT 7 days after light exposure; for Percent of mice with: subeffective doses BRM 0.1, MTP 1, TAM 0.05, DOX 1 mg/kg bw, OCT 7 days; for Effect (effectiveness at preventing light-induced photoreceptor degeneration as measured by OCT imaging): ip, dose of each compound in column Dose of Table 1
[5] = system: retinal transcriptome of Abca4−/−Rdh8−/− mice; experiment: RNA-seq retinal transcriptome of pretreated, light-exposed Abca4−/−Rdh8−/− mice (differential expression, Pearson, GSEA); format: in vivo, mouse
Abca4−/−Rdh8−/− mice [6] = experiment: Bright light-induced retinal degeneration in Abca4−/−Rdh8−/− mice, SLO autofluorescence imaging; format: in vivo, mouse; conditions: pretreatment before light 10,000 lux 30 min; SLO 8-9 days after light exposure
Experimental: SLO (Heidelberg Engineering, Heidelberg, Germany) was carried out for whole fundus imaging of mouse retinas. Mice were anesthetized by intraperitoneal injection of anesthetic cocktail indicated above, which was followed by pupil dilation using 1% tropicamide prior to SLO imaging under autofluorescence mode.
SLO (Heidelberg Engineering) was carried out for in vivo whole fundus imaging of mouse retinas. […] Numbers of autofluorescent spots were counted and subjected to statistical analyses as described below.
SLO (Heidelberg Engineering) was carried out for whole fundus imaging of mouse retinas in vivo. Mice were anesthetized, and their pupils were dilated as described above. SLO images were then acquired in the autofluorescence mode.

ARPE19 cells = experiment: In vitro detection and quantification of intracellular ROS in ARPE19 cells (DCF-DA / DHE probes); format: cell-based, human; conditions: retinoid applied to cultured ARPE19 cells, ROS probe DCF-DA or DHE
Experimental: ARPE19 cells were cultured in Dulbecco's Modified Eagle's Medium (DMEM) (low glucose) supplemented with 10% fetal bovine serum. The ROS probes, 2′,7′-dichlorofluorescein diacetate (DCF-DA, Sigma, St. Louis, Mo.) or dihydroethidium (DHE, Invitrogen Corporation, Carlsbad, Calif.) were added after indicated pretreatments and incubated at 37° C. for 10-min before thorough washing in PBS and the ROS signals were subsequently observed at the same exposure setting under an inverted fluorescence microscope (Leica DMI 6000 B). Fluorescence quantification was performed with Metamorph imaging software (Molecular Devices, Downington, Pa.). Thresholds corresponding to fluorescent signals were set from the images and average fluorescence intensities were recorded for statistical analysis.

[7] = GSEA, vehicle-treated light-exposed retinas against drug-treated

| Compound | retinal histology / immunohistochemistry (rhodopsin, PNA, DAPI; ONL) (Abca4−/−Rdh8−/− mice [2]) | retinal / photoreceptor morphology by OCT imaging (Abca4−/−Rdh8−/− mice [4]) | retinal autofluorescence spots by SLO imaging (Abca4−/−Rdh8−/− mice [6]) | further results |
| --- | --- | --- | --- | --- |
| CC(C)C[C@H](CN)CC(=O)O (single isomer, unassigned) [R and S enantiomer of pregabalin, pregabalin] |  |  |  | ROS production in the ONL / photoreceptors (DHE signal) [1]: also consistently observed |
| C[N+]1(C)CCC(OC(=O)C(c2ccccc2)c2ccccc2)CC1.[I-] [4-DAMP, 1,1-dimethyl-4-diphenylacetoxypiperidinium iodide] | preserve retinal morphology |  |  | retinal function by ERG (a-wave and b-wave amplitudes) (Abca4−/−Rdh8−/− mice [3]): protective effect |
| CCCN(CCC)C1CCc2cccc(O)c2C1 (centres unmarked) [8-OH-DPAT, 8-hydroxy-N,N-dipropyl-2-aminotetralin] |  | protective effect; also recorded: dose-dependent |  |  |
| CC(C)C[C@H]1C(=O)N2CCC[C@H]2[C@]2(O)O[C@](NC(=O)[C@@H]3C=C4c5cccc6[nH]c(Br)c(c56)C[C@H]4N(C)C3)(C(C)C)C(=O)N12 [BRM, 2-Bromo-α-ergocryptine methanesulfonate salt] |  |  |  | NES, CHEMOKINE SIGNALING gene set [5, 7]: 1.67; NES, CYTOKINE- RECEPTOR INTERACTIO gene set [5, 7]: 2.31; NES, P53 gene set [5, 7]: 2.06; NES, TOLL-LIKE SIGNALING gene set [5, 7]: 2.20; NES, APOPTOSIS gene set ([5]; GSEA, vehicle-treated light-exposed retinas against drug-treated, P in brackets not reported here): 1.75; number of light-up-regulated gene sets significantly down-regulated (GSEA) ([5]; of 44 gene sets up-regulated by light, mono doses BRM 1, MTP 10, TAM 2.5, DOX 10 mg/kg bw): 29 gene sets; Percent of mice with (Abca4−/−Rdh8−/− mice [4]; Table 14 (complete protection, ONL ≥50 μm)): 16.7% of mice; Percent of mice with (Abca4−/−Rdh8−/− mice [4]; Table 14 (no protection, ONL ≤20 μm)): 66.7% of mice; light-exposed mice with complete retinal protection (Abca4−/−Rdh8−/− mice [4]; lower doses BRM 0.1, MTP 1, TAM 0.05 mg/kg bw, alone or all three combined): 17% |
| c1ccc([I+]c2ccccc2)cc1 [DPI, diphenyliodonium] | nearly intact retinal morphology | well-preserved retinal morphology |  | retinal function by ERG (a-wave and b-wave amplitudes) (Abca4−/−Rdh8−/− mice [3]): protective effect |
| Cl.N=C(N)NC(=O)Cc1c(Cl)cccc1Cl [Guanfacine] | substantially preserved photoreceptor morphology | significantly prevented | markedly less autofluorescence spots |  |
| c1ccc2c(c1)OCC(C1=NCCN1)O2 (centres unmarked) [IDA, idazoxan] |  |  |  | effect on the protective action of GUB (Abca4−/−Rdh8−/− mice [4]; IDA 2.5 and 5 mg/kg BW first, then GUB 2 mg/kg BW, FIG. 25D): totally abolished the protective action |
| CC(C)n1cc2c3c(cccc31)[C@H]1C[C@@H](C(=O)N[C@H]3CCC[C@H]3O)CN(C)[C@@H]1C2 [LY 215840, (8β)-N-[(1S,2R)-2-Hydroxycyclopentyl]-1-isopropyl-6-methylergoline-8-carboxamide] | substantially preserved photoreceptor morphology | profound preservation of photoreceptor morphology | significantly reduced formation of autofluorescence spots | retinal function by ERG (a-wave and b-wave amplitudes) (Abca4−/−Rdh8−/− mice [3]; listed as LY): substantial preservation of the scotopic ERG response; also recorded: substantial preservation of this response |
| CC(Oc1c(Cl)cccc1Cl)C1=NCCN1.Cl (centres unmarked) [Lofexidine] |  | significantly prevented | markedly less autofluorescence spots | retinal function by ERG (a-wave and b-wave amplitudes) (Abca4−/−Rdh8−/− mice [3]; listed as LOF): substantial preservation of the scotopic ERG response; also recorded: substantial preservation of this response |
| COc1cc2nc(N3CCN(C(=O)c4ccco4)CC3)nc(N)c2cc1OC.Cl [Prazosin] | substantially preserved photoreceptor morphology | substantial protection on photoreceptor morphology | significantly protected retinas from developing light-induced damage |  |
| COc1cc(N)c(Cl)cc1C(=O)OCCCN1CCCCC1.Cl [RS 23579-190] | substantially preserved photoreceptor morphology | profound preservation of photoreceptor morphology | significantly reduced formation of autofluorescence spots | retinal function by ERG (a-wave and b-wave amplitudes) (Abca4−/−Rdh8−/− mice [3]; listed as RS): substantial preservation of the scotopic ERG response; also recorded: substantial preservation of this response |
| CC1=C(/C=C/C(C)=C/C=C/C(C)=C/CN)C(C)(C)CCC1 [Ret-NH2, all-trans-retinylamine] |  |  |  | ROS production in the ONL / photoreceptors (DHE signal) [1]: significantly decreased ROS production |
| CNc1cc(NS(=O)(=O)c2ccc(N)cc2)nc(NC)n1 [Ro 04-6790, 4-Amino-N-[2,6-bis(methylamino)-4-pyrimidinyl]benzenesulfonamidev] | substantially preserved photoreceptor morphology | profound preservation of photoreceptor morphology | significantly reduced formation of autofluorescence spots | retinal function by ERG (a-wave and b-wave amplitudes) (Abca4−/−Rdh8−/− mice [3]; listed as RO): substantial preservation of the scotopic ERG response; also recorded: substantial preservation of this response |
| CC1CCN(CC[C@H]2CCCN2S(=O)(=O)c2cccc(O)c2)CC1.Cl [SB 269970, 3-({(2R)-2-[2-(4-Methyl-1-piperidinyl)ethyl]-1-pyrrolidinyl}sulfonyl)phenol hydrochloride (1:1)] |  | profound preservation of photoreceptor morphology | significantly reduced formation of autofluorescence spots |  |
| CN1CCC(c2cn(C)c3ccc(OS(=O)(=O)c4c(F)cccc4F)cc23)CC1 [SGS 518 oxalate] | substantially preserved photoreceptor morphology | profound preservation of photoreceptor morphology | significantly reduced formation of autofluorescence spots |  |
| COc1ccc2c(c1)CC[C@@H]1[C@@H]2CC[C@]2(C)[C@@H](NCCCCCCN3C(=O)C=CC3=O)CC[C@@H]12 [U-73122, 1-(6-((17β-3-methoxyestra-1,3,5(10)-trien-17-yl)amino)hexyl)-1H-pyrrole-2,5-dione] | markedly less light-induced photoreceptor damage |  |  | retinal function by ERG (a-wave and b-wave amplitudes) (Abca4−/−Rdh8−/− mice [3]): protective effect |
| COC(=O)[C@@H]1[C@H]2C[C@H]3c4[nH]c5ccccc5c4CCN3C[C@@H]2CC[C@@H]1O.Cl [Yohimbine] |  |  |  | Effect (effectiveness at preventing light-induced photoreceptor degeneration as measured by OCT imaging) (Abca4−/−Rdh8−/− mice [4]): toxic |
| CC1=C(/C=C/C(C)=C/C=C/C(C)=C/C=O)C(C)(C)CCC1 [atRAL, all-trans-retinal] |  |  |  | intracellular ROS production (ARPE19 cells): significantly elevated intracellular ROS production |
| O=C(c1ccc(F)cc1)C1CCN(CCn2c(=O)[nH]c3ccccc3c2=O)CC1 [ketanserin] | substantial protective effect |  |  | retinal function by ERG (a-wave and b-wave amplitudes) (Abca4−/−Rdh8−/− mice [3]): protective effect |
| Cc1nc2sccn2c(=O)c1CCN1CCC(=C(c2ccc(F)cc2)c2ccc(F)cc2)CC1 [ritanserin, Ritanserin] |  | substantially protected photoreceptors from light-induced degeneration |  | retinal function by ERG (a-wave and b-wave amplitudes) (Abca4−/−Rdh8−/− mice [3]): protective effect |
| Eltoprazine |  |  |  | Effect (effectiveness at preventing light-induced photoreceptor degeneration as measured by OCT imaging) (Abca4−/−Rdh8−/− mice [4]): 20% |
